From PubChem BioAssay (NCI)
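Abbreviation: GI50, concentration required for 50% inhibition of growth. TGI: total growth inhibition.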

What was measured:
Test in all cases: inhibition of tumour cell growth, NCI panel, 384-well format
MDA-MB-231 breast = test system: MDA-MB-231 breast
T-47D breast = test system: T-47D breast
HS 578T breast = test system: HS 578T breast
A498 renal = test system: A498 renal
HL-60(TB) leukemia = test system: HL-60(TB) leukemia
K-562 leukemia = test system: K-562 leukemia
OVCAR-3 ovarian = test system: OVCAR-3 ovarian
CCRF-CEM leukemia = test system: CCRF-CEM leukemia
SR leukemia = test system: SR leukemia
SK-OV-3 ovarian = test system: SK-OV-3 ovarian
HT29 colon = test system: HT29 colon
MCF7 breast = test system: MCF7 breast
SK-MEL-28 melanoma = test system: SK-MEL-28 melanoma
EKVX NSCLC = test system: EKVX NSCLC
MDA-MB-435 melanoma = test system: MDA-MB-435 melanoma
HOP-62 NSCLC = test system: HOP-62 NSCLC
UO-31 renal = test system: UO-31 renal
RPMI-8226 leukemia = test system: RPMI-8226 leukemia
NCI/ADR-RES ovarian = test system: NCI/ADR-RES ovarian
UACC-257 melanoma = test system: UACC-257 melanoma
MDA-MB-468 breast = test system: MDA-MB-468 breast
UACC-62 melanoma = test system: UACC-62 melanoma
OVCAR-4 ovarian = test system: OVCAR-4 ovarian
NCI-H522 lung = test system: NCI-H522 lung
786-0 renal = test system: 786-0 renal
LOX IMVI melanoma = test system: LOX IMVI melanoma
ACHN renal = test system: ACHN renal
OVCAR-8 ovarian = test system: OVCAR-8 ovarian
RXF 393 renal = test system: RXF 393 renal
HCT-15 colon = test system: HCT-15 colon
SW-620 colon = test system: SW-620 colon
SK-MEL-5 melanoma = test system: SK-MEL-5 melanoma
NCI-H460 NSCLC = test system: NCI-H460 NSCLC
MOLT-4 leukemia = test system: MOLT-4 leukemia
TK-10 renal = test system: TK-10 renal
MALME-3M melanoma = test system: MALME-3M melanoma
NCI-H23 lung = test system: NCI-H23 lung
HOP-92 NSCLC = test system: HOP-92 NSCLC
SF-295 CNS = test system: SF-295 CNS
SF-268 CNS = test system: SF-268 CNS
SF-539 CNS = test system: SF-539 CNS
SNB-19 CNS = test system: SNB-19 CNS
PC-3 prostate = test system: PC-3 prostate
NCI-H226 lung = test system: NCI-H226 lung
OVCAR-5 ovarian = test system: OVCAR-5 ovarian
CAKI-1 renal = test system: CAKI-1 renal
BT-549 breast = test system: BT-549 breast
KM12 colon = test system: KM12 colon
IGROV1 ovarian = test system: IGROV1 ovarian
M14 melanoma = test system: M14 melanoma
SNB-75 CNS = test system: SNB-75 CNS
COLO 205 colon = test system: COLO 205 colon
A549 NSCLC = test system: A549 NSCLC
HCC-2998 colon = test system: HCC-2998 colon
SN12C renal = test system: SN12C renal
NCI-H322M lung = test system: NCI-H322M lung
DU-145 prostate = test system: DU-145 prostate

Work on CN1CCN(c2cc(C(=O)Nc3cc4cc(-c5cnn(C)c5)ccc4cn3)ccn2)CC1 yielded a GI50 (MDA-MB-231 breast) of 87 nM, a TGI (MDA-MB-231 breast) of 654 nM and a GI50 (T-47D breast) of 67 nM. It also gave a TGI (T-47D breast) of 340 nM, a GI50 (HS 578T breast) of 38.9 nM and a TGI (HS 578T breast) of 152 nM. The GI50 (A498 renal) was 32.8 nM, the TGI (A498 renal) was 158 nM and the GI50 (HL-60(TB) leukemia) was 99.4 nM. For the same molecule, the TGI (HL-60(TB) leukemia) was 219 nM, the GI50 (K-562 leukemia) was 52.8 nM and the TGI (K-562 leukemia) was 345 nM. The GI50 (OVCAR-3 ovarian) was 30.2 nM, the TGI (OVCAR-3 ovarian) was 82.5 nM and the GI50 (CCRF-CEM leukemia) was 25.6 nM. For the same molecule, the TGI (CCRF-CEM leukemia) was 53.5 nM, the GI50 (SR leukemia) was 19.5 nM and the TGI (SR leukemia) was 40.8 nM. For the same molecule, the GI50 (SK-OV-3 ovarian) was 28.1 nM, the TGI (SK-OV-3 ovarian) was 112 nM and the GI50 (HT29 colon) was 138 nM. The TGI (HT29 colon) was 286 nM, the GI50 (MCF7 breast) was 55.9 nM and the TGI (MCF7 breast) was 221 nM. For the same molecule, the GI50 (SK-MEL-28 melanoma) was 125 nM, the TGI (SK-MEL-28 melanoma) was 259 nM and the GI50 (EKVX NSCLC) was 62.5 nM. For the same molecule, the TGI (EKVX NSCLC) was 1600 nM, the GI50 (MDA-MB-435 melanoma) was 86.9 nM and the TGI (MDA-MB-435 melanoma) was 283 nM. It also gave a GI50 (HOP-62 NSCLC) of 31.8 nM, a TGI (HOP-62 NSCLC) of 145 nM and a GI50 (UO-31 renal) of 158 nM. It also gave a TGI (UO-31 renal) of 3160 nM, a GI50 (RPMI-8226 leukemia) of 24.5 nM and a TGI (RPMI-8226 leukemia) of 49.1 nM. For the same molecule, the GI50 (NCI/ADR-RES ovarian) was 71.4 nM, the TGI (NCI/ADR-RES ovarian) was 244 nM and the GI50 (UACC-257 melanoma) was 36.3 nM. The TGI (UACC-257 melanoma) was 107 nM, the GI50 (MDA-MB-468 breast) was 26.8 nM and the TGI (MDA-MB-468 breast) was 53.9 nM. For the same molecule, the GI50 (UACC-62 melanoma) was 27.8 nM, the TGI (UACC-62 melanoma) was 88.7 nM and the GI50 (OVCAR-4 ovarian) was 58.9 nM. For the same molecule, the TGI (OVCAR-4 ovarian) was 187 nM, the GI50 (NCI-H522 lung) was 26.6 nM and the TGI (NCI-H522 lung) was 65.5 nM. The GI50 ([…]-0 renal) was 154 nM, the TGI (786-0 renal) was 316 nM and the GI50 (LOX IMVI melanoma) was 51.7 nM. It also gave a TGI (LOX IMVI melanoma) of 172 nM, a GI50 (ACHN renal) of 47.5 nM and a TGI (ACHN renal) of 219 nM. For the same molecule, the GI50 (OVCAR-8 ovarian) was 72.4 nM, the TGI (OVCAR-8 ovarian) was 302 nM and the GI50 (RXF 393 renal) was 118 nM. For the same molecule, the TGI (RXF 393 renal) was 245 nM, the GI50 (HCT-15 colon) was 39.1 nM and the TGI (HCT-15 colon) was 157 nM. The GI50 (SW-620 colon) was 33.6 nM, the TGI (SW-620 colon) was 1580 nM and the GI50 (SK-MEL-5 melanoma) was 22.9 nM. For the same molecule, the TGI (SK-MEL-5 melanoma) was 92.2 nM, the GI50 (NCI-H460 NSCLC) was 51 nM and the TGI (NCI-H460 NSCLC) was 190 nM. The GI50 (MOLT-4 leukemia) was 18 nM, the TGI (MOLT-4 leukemia) was 33 nM and the GI50 (TK-10 renal) was 116 nM. For the same molecule, the TGI (TK-10 renal) was 442 nM, the GI50 (MALME-3M melanoma) was 84.6 nM and the TGI (MALME-3M melanoma) was 213 nM. It also gave a GI50 (NCI-H23 lung) of 18.9 nM, a TGI (NCI-H23 lung) of 47.5 nM and a GI50 (HOP-92 NSCLC) of 39.6 nM. For the same molecule, the TGI (HOP-92 NSCLC) was 398 nM, the GI50 (SF-295 CNS) was 99.8 nM and the TGI (SF-295 CNS) was 314 nM. For the same molecule, the GI50 (SF-268 CNS) was 142 nM, the TGI (SF-268 CNS) was 438 nM and the GI50 (SF-539 CNS) was 121 nM. The TGI (SF-539 CNS) was 322 nM, the GI50 (SNB-19 CNS) was 41.6 nM and the TGI (SNB-19 CNS) was 10200 nM. It also gave a GI50 (PC-3 prostate) of 76.7 nM, a TGI (PC-3 prostate) of 514 nM and a GI50 (NCI-H226 lung) of 131 nM. The TGI (NCI-H226 lung) was 370 nM, the GI50 (OVCAR-5 ovarian) was 167 nM and the TGI (OVCAR-5 ovarian) was 640 nM. For the same molecule, the GI50 (CAKI-1 renal) was 35.3 nM, the TGI (CAKI-1 renal) was 210 nM and the GI50 (BT-549 breast) was 28.3 nM. For the same molecule, the TGI (BT-549 breast) was 71.4 nM, the GI50 (KM12 colon) was 32.9 nM and the TGI (KM12 colon) was 209 nM. For the same molecule, the GI50 (IGROV1 ovarian) was 52.1 nM, the TGI (IGROV1 ovarian) was 255 nM and the GI50 (M14 melanoma) was 75.9 nM. The TGI (M14 melanoma) was 221 nM, the GI50 (SNB-75 CNS) was 105 nM and the TGI (SNB-75 CNS) was 261 nM. It also gave a GI50 (COLO 205 colon) of 26 nM, a TGI (COLO 205 colon) of 64.1 nM and a GI50 (A549 NSCLC) of 30.7 nM. It also gave a TGI (A549 NSCLC) of 129 nM, a GI50 (HCC-2998 colon) of 105 nM and a TGI (HCC-2998 colon) of 287 nM. The GI50 (SN12C renal) was 55.3 nM, the TGI (SN12C renal) was 228 nM and the GI50 (NCI-H322M lung) was 68.2 nM. The TGI (NCI-H322M lung) was 858 nM, the GI50 (DU-145 prostate) was 50.2 nM and the TGI (DU-145 prostate) was 282 nM.
